{"source": "patent US10307140B2", "about": "“Device for detection of hepatocellar carcinoma (HCC) using an octanoate breath test” (EXALENZ BIOSCIENCE LTD., priority 2011, dated 2019)", "origin": "cited, not measured here", "test_system": "liver mitochondria", "conditions": "HCC patients", "note": "Where two headings read alike, the source gives them in different places."}
{"smiles": "CC(C)CC(=O)C(=O)O", "note": "[KICA, ketoisocaproate]", "values": [{"measurement": "change of ketoisocaproate decarboxylation", "setting": "after RFA, P<0.05", "result": "−27", "unit": "%"}, {"measurement": "change of ketoisocaproate decarboxylation", "setting": "after TACE", "result": "unaffected"}]}
